# Values joined by “and” are separate entries in the source; they are usually repeats but may differ in a detail not shown here. Identical values can stand only once.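 Test compounds were applied to cells in 96-well plates for 48 hours at 5 doses. TGI marks complete inhibition of growth.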
# Assays:
# Experiment in all cases: inhibition of tumour cell growth, NCI panel, 48 h
# [1] = test system: PC-3 prostate
# [2] = test system: SK-MEL-5 melanoma
# [3] = test system: SW-620 colon
# [4] = test system: T-47D breast
# [5] = test system: MDA-MB-435
# [6] = test system: BT-549 breast
# [7] = test system: IGROV1 ovarian
# [8] = test system: UO-31 renal
# [9] = test system: CAKI-1 renal
# [10] = test system: CCRF-CEM leukemia
# [11] = test system: HL-60(TB) leukemia
# [12] = test system: OVCAR-4 ovarian
# [13] = test system: MDA-MB-231 breast
# [14] = test system: LXFL 529 NSCLC
# [15] = test system: HOP-18 NSCLC
# [16] = test system: DLD-1 colon
# [17] = test system: M19-MEL melanoma
SMILES,TGI [1] [µM],TGI [2],TGI [3],TGI [4] [µM],TGI [5] [µM],TGI [6] [µM],TGI [7],TGI [8],TGI [9] [µM],TGI [10] [µM],TGI [11] [µM],TGI [12],TGI [13] [µM],TGI [14] [µM],TGI [15] [µM],TGI [16],TGI [17]
CCC(=O)N1C(=O)C(CC)(CC)C(=O)N1C(=O)CC,> 100,> 100 µM,> 100 µM,> 100,> 100,> 100,> 100 µM,> 100 µM,> 100,> 100,> 100,> 100 µM,> 100,–,–,–,–
CC(C)=CCC[C@@H](C)C1=CC(=O)C(C)=C(O)C1=O,18.2,16.4 µM,33.5 µM,6.35,16.9,18.1,23.2 µM,13.5 µM,10.5,3.9,0.878,14.2 µM,18.1,–,–,–,–
COc1ccc(CCCN2c3ccccc3Sc3ccccc32)cc1,–,> 100 µM,> 100 µM,–,–,–,> 100 µM,> 100 µM,> 100,> 100,> 100,> 100 µM,–,> 100,> 100,> 100 µM,–
O=C1O[C@H]2C3C4CCC(C4[C@@H]2I)[C@H]13 (some centres undefined),> 100,> 100 µM,> 100 µM,> 100,> 100,> 100,> 100 µM,> 100 µM,> 100,> 100,> 100,> 100 µM,> 100,–,–,–,–
COc1ccc(Cn2c3ccc([N+](=O)[O-])cc3c(=O)n2Cc2ccccn2)cc1,> 100,83.9 µM,> 100 µM,77.4,> 100,> 100,> 100 µM,> 100 µM,> 100,> 100,75.1,> 100 µM,> 100,–,–,–,–
O=C(N[C@H]1CCC[C@H]1C(=O)Nc1ccc(C(F)(F)F)cc1)OCc1ccccc1,> 100,> 100 µM,> 100 µM,> 100,> 100,> 100,> 100 µM,> 100 µM,> 100,> 100,> 100,> 100 µM,> 100,–,–,–,–
N#Cc1cc([N+](=O)[O-])ccc1NC(=O)C(=O)C(C(=O)c1ccc2ccccc2c1)C1OCc2ccccc21 (centres undefined),–,24.8 µM,41.1 µM,–,–,–,61.6 µM,26.5 µM,> 50.3,39.2,46.7,> 55.2 µM,–,13.7,–,54.2 µM,31.6 µM
CN(C)C=NCC(O)c1ccccc1 (centres undefined),> 100,> 100 µM,> 100 µM,> 100,> 100,> 100,> 100 µM,> 100 µM,> 100,> 100,> 100,> 100 µM,> 100,–,–,–,–
CCOC(=O)C(NC(=O)CC)(Nc1ccc(S(=O)(=O)Nc2ccc(OC)nn2)cc1)C(F)(F)F (centres undefined),> 100,> 100 µM,> 100 µM,> 100,> 100,> 100,> 100 µM,> 100 µM,> 100,> 100,> 100,> 100 µM,> 100,–,–,–,–
CCN(CC)c1ccc2cc(C(N)=O)c(=Nc3ccc(F)cc3)oc2c1,> 100,> 100 µM,> 100 µM,> 100,> 100,> 100,> 100 µM,> 100 µM,> 100,> 100,> 100,> 100 µM,88.5,–,–,–,–
CCCC(=O)c1ccc(=O)n(C)c1,–,> 100 µM,> 100 µM,–,–,–,> 100 µM,> 100 µM,> 100,> 100,> 100,> 100 µM,–,> 100,–,> 100 µM,> 100 µM
Cn1nc2ccc3nccc(NCCNCCO)c3c2n1,–,> 100 µM,> 100 µM,–,–,–,> 100 µM,90.9 µM,> 100,> 100,> 100,> 100 µM,–,> 100,–,> 100 µM,> 100 µM
O=S(c1ccc(Cl)cc1)c1ccccc1C1=NCCN1 (centres undefined),> 100,> 100 µM,> 100 µM,> 100,> 100,> 100,> 100 µM,> 100 µM,> 100,> 100,> 100,> 100 µM,> 100,–,–,–,–
COc1cc(C(O)C(=O)c2cnc3cc([N+](=O)[O-])ccc3n2)ccc1O (centres undefined),–,> 100 µM,> 100 µM,–,–,–,> 100 µM,> 100 µM,> 100,> 100,> 100,> 100 µM,–,> 100,–,> 100 µM,> 100 µM
O=C1C=C(O)c2c(O)ccc(O)c2C1=O,> 100,> 100 µM,> 100 µM,> 100,> 100,> 100,> 100 µM,> 100 µM,> 100,> 100,> 100,> 100 µM,> 100,–,–,–,–
COc1cc([C@@H]2c3cc4c(cc3[C@@H](c3c(O)cc(O)c5c3O[C@H](c3ccc(O)c(O)c3)[C@H](OC(=O)c3cc(O)c(O)c(O)c3)C5)[C@H]3COC(=O)[C@H]23)OCO4)cc(OC)c1O,> 100,78.4 µM,> 100 µM,> 100,57.3,> 100,> 100 µM,–,> 100,59,56.3,> 100 µM,> 100,–,–,–,–
COC12C=CC(CC1)C(C)(C)C2OS(C)(=O)=O (centres undefined),> 100,> 100 µM,> 100 µM,> 100,> 100,> 100,> 100 µM,> 100 µM,> 100,> 100,> 100,> 100 µM,> 100,–,–,–,–
CC(=O)OCC1OC(SC2=NC(=O)/C(=C/c3ccccc3)S2)C(OC(C)=O)C(OC(C)=O)C1OC(C)=O (centres undefined),> 100,42.8 µM,74.1 µM,> 100,38.8,78.9,> 100 µM,52.8 µM,12,94.4,31.3,> 100 µM,44.5,–,–,–,–

SMILES,TGI [1] [µM],TGI [2],TGI [3],TGI [4] [µM],TGI [5] [µM],TGI [6] [µM],TGI [7],TGI [8],TGI [9] [µM],TGI [10] [µM],TGI [11] [µM],TGI [12],TGI [13] [µM],TGI [14] [µM],TGI [15] [µM],TGI [16],TGI [17]
COc1cc2c(c(OC)c1OC)-c1ccc(SC)c(=O)cc1[C@@H](NC(=O)c1ccc([N+](=O)[O-])cc1)CC2,–,3.79 µM and 1.59 µM,25 µM and > 100 µM,–,–,–,25 µM and > 100 µM,25 µM and 59.4 µM,–,25,0.302,25 µM and > 100 µM,–,–,–,25 µM and > 100 µM,25 µM and > 100 µM
COc1cc(/C=C/C(=N\NC(=S)NN)c2sc(NNC(C)=O)nc2C)ccc1O,> 100,> 100 µM,> 100 µM,> 100,> 100,> 100,> 100 µM,> 100 µM,> 100,> 100,> 100,> 100 µM,> 100,–,–,–,–
CC(=O)OCC1OC(n2c(N)c(C#N)c(-c3cccc(Cl)c3)c(C#N)c2=S)C(OC(C)=O)C(OC(C)=O)C1OC(C)=O (centres undefined),> 100,30.3 µM,> 100 µM,59,50,70.8,> 100 µM,> 100 µM,> 100,> 100,52,> 100 µM,50.2,–,–,–,–
OC1(c2ccc(Cl)cc2)c2c(c3ccccc3c3ccccc23)C2=NCCN21 (centres undefined),49.6,> 100 µM,32.8 µM,> 100,> 100,33.7,18.2 µM,24.6 µM,68.8,> 100,> 100,11 µM,26.8,–,–,–,–
O=C(NNS(=O)(=O)c1ccccc1)c1csc(NC(=S)NC2CCCCC2)n1,> 100,27.6 µM,72.9 µM,52.9,43.3,45.3,85.1 µM,74.1 µM,61.4,> 100,> 100,> 100 µM,52.6,–,–,–,–
CN(C(=O)C12C3C4C1C1C2C3C41C(O)C(C)(C)C)C(C)(C)C (centres undefined),–,> 100 µM,> 100 µM,–,–,–,> 100 µM,> 100 µM,> 100,> 100,> 100,> 100 µM,–,> 100,–,> 100 µM,> 100 µM
COC1=CC(=O)c2nc3ccccc3c3ccnc1c23,> 31.3,2.82 µM,35.1 µM,> 100,0.38,29.6,25.1 µM,> 50.2 µM,> 53.8,13.8,10.7,18.8 µM,> 69,–,–,–,–
C[N+](C)(C)CC(CC(=O)[O-])C1CC1 (centres undefined),–,> 100 µM,> 100 µM,–,–,–,> 100 µM,> 100 µM,> 100,> 100,> 100,> 100 µM,–,> 100,> 100,–,> 100 µM
COc1ccc(N2N=NN(C(C)C)/C2=C(/Cl)c2nnnn2-c2ccc(OC)cc2)cc1,28.3,28.7 µM,3.96 µM,15.3,25.5,29.7,28.7 µM,10.8 µM,3.16,4.24,5.15,11.6 µM,22.6,–,–,–,–
CN(/N=C/c1ccc(Cl)cc1)C1=NCCCCN1,> 100,> 100 µM,> 100 µM,> 100,> 100,> 100,> 100 µM,> 100 µM,> 100,> 100,> 100,> 100 µM,> 100,–,–,–,–
Nc1ccccc1OCCCOc1ccccc1N,> 100,> 100 µM,> 100 µM,> 100,> 100,> 100,> 100 µM,> 100 µM,> 100,> 100,> 100,> 100 µM,> 100,–,–,–,–
COc1cc(O)cc(O)c1C(=O)CC(Cl)(Cl)Cl,> 100,> 100 µM,> 100 µM,> 100,> 100,> 100,> 100 µM,> 100 µM,> 100,> 100,> 100,> 100 µM,> 100,–,–,–,–
CC1=NN(C(=O)Cc2ccccc2)C(=O)/C1=C\c1ccccc1O,–,> 100 µM,> 100 µM,–,–,–,> 100 µM,> 100 µM,> 100,> 100,> 100,> 100 µM,–,> 100,–,> 100 µM,> 100 µM
CC(=O)c1ccc2c3c1O[C@H]1c4[nH]c5ccccc5c4C[C@@]4(O)[C@@H](C2)N(CC2CC2)CC[C@]314,21.7,31.8 µM,20.6 µM,44,32.5,29.6,30.1 µM,28.7 µM,37.4,28.2,37,39.9 µM,25.7,–,–,–,–
O=C1CCCCN1C(=O)c1ccc([N+](=O)[O-])cc1,> 100,> 100 µM,> 100 µM,> 100,> 100,> 100,> 100 µM,> 100 µM,> 100,> 100,> 100,> 100 µM,> 100,–,–,–,–
O=c1c2cc(I)ccc2nc(SCc2nnco2)n1Cc1ccccc1,> 100,> 100 µM,> 100 µM,> 100,> 100,> 100,> 100 µM,2.87 µM,> 100,62.9,35.4,> 100 µM,> 100,–,–,–,–
N#Cc1ccc2[nH]c3c(c2c1)CC(=O)Nc1ccccc1-3,> 100,> 100 µM,> 100 µM,> 100,> 100,> 100,> 100 µM,> 100 µM,> 100,> 100,> 100,> 100 µM,> 100,–,–,–,–
